Legend:
[1] = system: MDA-MB-231 breast cancer cells; assay: MTT cytotoxicity assay, MDA-MB-231 cells; format: cell-based, human; settings: for IC50: 24 h incubation, MTT, average of at least three experiments (±SD)
Protocol: (§1) The MDA-MB-231 and MCF-7 human breast cancer cells were purchased from ATCC. The MDA-MB-231 and MCF-7 cells were grown in Dulbecco's modified Eagles' medium (DMEM high glucose) (Capricorn Scientific) at 37°C in 5% CO2 supplemented with 10% fetal bovine serum (Capricorn Scientific). HDF cells were purchased from Merck and were grown in the fibroblast growth medium. All cells were adherent in monolayers and, upon confluence, were washed with phosphate buffer saline (PBS) and harvested by digestion with trypsin-EDTA 0.05% (v/v). The cells were suspended and transferred into new, sterile, culture flasks for maintenance or seeded in sterile test microplates for different assays. All cells were manipulated under aseptic conditions in a flow chamber.
(§2) The cells were adherent in monolayers and, upon confluence, were harvested by digestion with trypsin. The cytotoxicity of the complexes against the tumour cells was assessed using the colorimetric assay MTT […], which evaluates the metabolic activity of viable cells. This assay measures the conversion of yellow tetrazolium into purple formazan by an active mitochondrial dehydrogenase in living cells. For this purpose, the cells (10–20 × 10^3 in 200 μL of the medium) were seeded into 96-well plates and incubated in a 5% CO2 incubator at 37°C. The cells were settled for 24 h followed by the addition of a dilution series of the complexes in a medium (200 μL). The complexes were first solubilized in 100% DMSO, given a 10 mM stock solution, and then in a medium within the concentration range of 0.1–100 µM. […] After 24 h of incubation, the treatment solutions were removed by aspiration, and MTT solution (200 μL, 0.5 mg·mL^−1 in PBS) was added to each well. After 3 h at 37°C/5% CO2, the solution was removed, and the purple formazan crystals formed inside the cells were dissolved in DMSO (200 μL) by thorough shaking. The cellular viability was evaluated by measuring the absorbance at 570 nm by using a microplate spectrophotometer. The IC50 values were obtained by dose-response curves using the GraphPad Prism software (vs. 5).
The MDA-MB-231 and MCF-7 human breast cancer cells were purchased from ATCC. MDA-MB-231 and MCF-7 cells were grown in Dulbecco’s modified Eagles’s medium (DMEM high glucose) (Capricorn Scientific) at 37 °C in 5% CO2 supplemented with 10% fetal bovine serum (Capricorn Scientific). All cells were adherent in monolayers and, upon confluence, were washed with phosphate buffer saline (PBS) and harvested by digestion with Trypsin-EDTA 0.05% (v/v). The cells were suspended and transferred into new, sterile, culture flasks, for maintenance or seeded in sterile test microplates for different assays. All cells were manipulated under aseptic conditions in a flow chamber.
The cells were adherent in monolayers and, upon confluency, were harvested by digestion with trypsin. The cytotoxicity of the complexes against the tumour cells was assessed using the colorimetric assay MTT […], which evaluate the metabolic activity of viable cells. This assay measures the conversion of the yellow tetrazolium into purple formazan by an active mitochondrial dehydrogenase in living cells. For this purpose, cells (10-20 × 10^3 in 200 μL of medium) were seeded into 96-well plates and incubated in a 5% CO2 incubator at 37 °C. The cells were settled for 24 h followed by the addition of a dilution series of the complexes in medium (200 μL). The complexes were first solubilized in 100% DMSO, given a 10 mM stock solution, and then in medium within the concentration range of 0.1–100 µM. […] After 24 h of incubation, the treatment solutions were removed by aspiration, and MTT solution (200 μL, 0.5 mg·mL^-1 in PBS) was added to each well. After 3 h at 37 °C/5% CO2, the solution was removed, and the purple formazan crystals formed inside the cells were dissolved in DMSO (200 μL) by thorough shaking. […]

[2] = Stability in DMSO-d6 and DMSO-d6/D2O monitored by 31P{1H} NMR; format: physicochemical; settings: room temperature and 37°C, 48 h, 31P{1H} NMR
From the text: The assessment of the biological properties of the complexes requires their dissolution in a cell culture medium which is mainly constituted by water. When the complex is not hydrosoluble enough, the used protocol contemplates preliminary dissolution in DMSO before the addition to the culture medium. Thus, it is important to determine the stability and behaviour of the complexes in both DMSO and water/DMSO mixtures to check whether different species have been formed when dissolved. Dissolutions in DMSO-d6 and DMSO-d6/D2O of the new complexes 8 and 11 were monitored by ^31P{^1H} NMR over time at room temperature and 37°C. The stability studies of the rest of the complexes (1‐7, 9, 10) were published previously. All experiments were performed by a similar procedure: the complex (0.01 g) was introduced into a 5 mm NMR tube and dissolved in 0.5 mL of degassed solvent (DMSO-d6 and a 1 : 1 mixture of DMSO-d6/D2O). The solution was left at room temperature and monitored by ^31P{^1H} NMR first every 15 minutes, and later in longer periods. Stability was also monitored at incubation cell-based assay temperature (37°C).
All compounds were studied for their stability in 100% DMSO-d6 and DMSO-d6/D2O mixture by using NMR spectroscopy in common aerobic conditions. All experiments were performed by a similar procedure: the complex (0.01 g) was introduced into a 5 mm NMR tube and dissolved in 0.5 mL of degassed solvent (DMSO-d6 and a 1:1 mixture of DMSO-d6/D2O). The solution was left at room temperature and monitored by ^31P{^1H} NMR first every 15 minutes, and later in longer time periods. Stability was also monitored at incubation cell-based assays temperature (37 °C).

[3] = system: MCF-7 breast cancer cells; assay: MTT cytotoxicity assay, MCF-7 cells; format: cell-based, human; settings: 24 h incubation, average of at least three experiments (±SD)
Protocol: as §1
The cells were adherent in monolayers and, upon confluence, were harvested by digestion with trypsin. The cytotoxicity of the complexes against the tumour cells was assessed using the colorimetric assay MTT […], which evaluates the metabolic activity of viable cells. This assay measures the conversion of yellow tetrazolium into purple formazan by an active mitochondrial dehydrogenase in living cells. For this purpose, the cells (10–20 × 10^3 in 200 μL of the medium) were seeded into 96-well plates and incubated in a 5% CO2 incubator at 37°C. The cells were settled for 24 h followed by the addition of a dilution series of the complexes in a medium (200 μL). The complexes were first solubilized in 100% DMSO, given a 10 mM stock solution, and then in a medium within the concentration range of 0.1–100 µM. […] The cellular viability was evaluated by measuring the absorbance at 570 nm by using a microplate spectrophotometer. […]
The cells were adherent in monolayers and, upon confluency, were harvested by digestion with trypsin. The cytotoxicity of the complexes against the tumour cells was assessed using the colorimetric assay MTT […], which evaluate the metabolic activity of viable cells. […]

[4] = system: normal human fibroblasts (HDF); assay: MTT cytotoxicity assay, normal human dermal fibroblasts; format: cell-based; settings: for IC50: 24 h incubation, MTT, normal human fibroblasts; for Fold less cytotoxic for fibroblasts (HDF) than for MCF-7 cells: selectivity HDF vs MCF-7; for Fold less cytotoxic for fibroblasts (HDF) than for MDA-MB-231 cells: selectivity HDF vs MDA-MB-231
Protocol: as §1, §2

[5] = biological target: human serum albumin (HSA) (Homo sapiens, UniProt P02768); assay: Binding to human serum albumin by steady-state and time-resolved Trp214 fluorescence; settings: for Emission intensity of Trp214 relative to value in the absence of compound: 20 µM compound (1:4 HSA:compound), 24 h, λem 340 nm; for Type of quenching: HSA-Trp214 fluorescence; for Spectral shift of Trp214 emission: steady-state emission, 24 h incubation; for Effect on amplitude-weighted mean fluorescence lifetime of HSA-Trp214: time-resolved fluorescence, λem 350 nm
Protocol: (§3) The stock solutions of HSA were freshly prepared for each experiment by gently dissolving protein in PBS pH 7.4 (tablets from Fisher) for 1 hour to allow protein to completely hydrate. The concentration of the protein in the stock solutions was determined by spectrophotometry using the molar absorption coefficient at 280 nm ε280(HSA) = 36,850 M^−1·cm^−1 [38].
In each essay, all spectroscopic measurements were carried out on individually prepared samples to ensure the same preincubation time at (37.0 ± 0.1)°C, the same % of DMSO in the final samples, and the same exposure to excitation light and to avoid the need for dilution corrections. Moreover, for a direct titration protocol, a highly concentrated stock solution of the compounds in the buffer would be required, which would raise solubility issues. Dimethylsulfoxide (DMSO, from Fisher) was used to prepare concentrated stock solutions of each complex, followed by appropriate dilution to obtain the desired concentration. The DMSO content was kept at 2% (v/v) in PBS pH 7.4 in all samples. Dilutions were carried out immediately before sample preparation.
Fluorescence measurements were performed at 25.0 ± 0.1°C. The final protein concentration in the individually prepared samples (3.72 to 5 μM) was kept constant in each assay, and the complex concentration was varied to obtain desired HSA: Ru-complex molar ratios ranging from 1 : 0.25 to 1 : 10. A control sample containing the same amount of protein and final DMSO content and with no complex was also prepared for each experiment. Appropriate blank samples with no protein but with the same complex concentrations were prepared as well for background correction.
The steady-state fluorescence intensity was measured with excitation at 295 nm, and emission spectra were collected with bandwidths of 4 nm for both excitation and emission. For Stern–Volmer plots, the fluorescence intensity with emission at 340 nm was selected because it is near the maximum emission wavelength (so the sensitivity is close to maximum), but it is further to red in relation to the water Raman scattering peak. These values were corrected for the absorption and emission inner filter effects using the absorbance recorded for each sample at the excitation and emission wavelengths used for the steady-state quenching analysis. For time-resolved fluorescence measurements, the single-photon-counting technique was used with nanoLED N-280 (Horiba Jobin Yvon) as the pulsed excitation source (280 nm) and with emission collected at 350 nm (13 nm emission bandwidth), eliminating the contribution of the emission by tyrosine residues.
The experimental fluorescence intensity decays of HSA in buffer solution can be described by a sum of exponentials:(1) It=∑i=1npiexp−t/τi, where pi and τi are the pre-exponential factors and lifetime of component i, respectively. The amplitude or normalized pre-exponential of each lifetime component αi is pi/Σipi with Σiαi = 1. Fluorescence decays were analysed by an iterative deconvolution method using the TRFA Data Processor software (version 1.4; Minsk, Belarus), and the instrument response function was obtained using scattering by a colloidal suspension of silica (Ludox®, Sigma-Aldrich) diluted in water. Criteria for judging the quality of the fit were reduced χ^2 close to 1 and a random distribution of weighted residuals and residual autocorrelation.
To evaluate changes in the quantum yield by processes affecting the fluorescence lifetimes of HSA, the amplitude-weighted mean fluorescence lifetime ( τ¯ ) was calculated using the following equation:(2) τ¯=∑i=1nαiτi.
as §3, with “dissolving the” for “dissolving”, “allow the” for “allow”, “of” for “of the”, “M^−1 cm^−1.[8] […]” for “M^−1·cm^−1 [38].”

Chain of human serum albumin (HSA) (P02768 25-609): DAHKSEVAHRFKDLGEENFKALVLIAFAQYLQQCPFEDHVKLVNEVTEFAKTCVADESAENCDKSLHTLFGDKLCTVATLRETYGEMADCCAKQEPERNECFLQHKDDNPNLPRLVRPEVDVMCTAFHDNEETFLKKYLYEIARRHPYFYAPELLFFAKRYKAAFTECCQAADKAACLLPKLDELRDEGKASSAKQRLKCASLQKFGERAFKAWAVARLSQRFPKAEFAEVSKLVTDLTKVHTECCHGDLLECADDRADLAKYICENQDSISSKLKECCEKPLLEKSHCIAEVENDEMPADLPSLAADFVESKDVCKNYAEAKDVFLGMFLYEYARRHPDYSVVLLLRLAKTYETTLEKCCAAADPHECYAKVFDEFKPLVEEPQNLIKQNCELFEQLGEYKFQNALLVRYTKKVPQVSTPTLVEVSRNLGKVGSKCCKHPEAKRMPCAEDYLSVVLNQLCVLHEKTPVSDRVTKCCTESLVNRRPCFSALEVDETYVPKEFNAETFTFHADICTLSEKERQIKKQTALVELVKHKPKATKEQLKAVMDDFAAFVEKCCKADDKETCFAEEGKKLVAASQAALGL

Structure (SMILES)	IC50 [1] [µM]	Fold increase in cytotoxicity with respect to complex 5 ([1]; MDA-MB-231, 24 h) [fold]	Fold increase in antiproliferative activity with respect to complex 6 ([1]; MDA-MB-231, 24 h) [fold]	Stability in DMSO-d6 [2]	Stability in DMSO-d6/D2O (1:1) [2]	IC50 [3] [µM]	IC50 [4] [µM]	Fold less cytotoxic for fibroblasts (HDF) than for MCF-7 cells [4]	Fold less cytotoxic for fibroblasts (HDF) than for MDA-MB-231 cells [4] [fold]	Emission intensity of Trp214 relative to value in the absence of compound [5]	Type of quenching [5]	Spectral shift of Trp214 emission [5]	Effect on amplitude-weighted mean fluorescence lifetime of HSA-Trp214 [5]
C[N+]12CN3CN(C1)C[P]([Ru+]([Cl])[P](c1ccccc1)(c1ccccc1)c1ccccc1)(C3)C2.O=S(=O)([O-])C(F)(F)F.c1cc[cH-]c1 [Compound 6, [RuClCp(PPh3)(mPTA)](CF3SO3)]	8.3 ± 1.4	7											
CN1CN2C[NH+](C)C[P]([Ru+]([Cl])[P](c3ccccc3)(c3ccccc3)c3ccccc3)(C1)C2.O=S(=O)([O-])C(F)(F)F.c1cc[cH-]c1 [Compound 7, [RuClCp(HdmoPTA)(PPh3)](CF3SO3)]	2.5 ± 1.1		4										
CN1CN2C[NH+](C)C[P]([Ru+2]([P](c3ccccc3)(c3ccccc3)c3ccccc3)[S](C)(C)=O)(C1)C2.O=S(=O)([O-])C(F)(F)F.O=S(=O)([O-])C(F)(F)F.c1cc[cH-]c1 [Compound 8, [RuCp(DMSO-κS)(HdmoPTA)(PPh3)](CF3SO3)2]	15 ± 2.2			stable	stable								
CN1CN2C[NH+](C)C[P]([Ru+2]([P](c3ccccc3)(c3ccccc3)c3ccccc3)[P](c3ccccc3)(c3ccccc3)c3ccccc3)(C1)C2.O=S(=O)([O-])C(F)(F)F.O=S(=O)([O-])C(F)(F)F.c1cc[cH-]c1 [Compound 9, [RuCp(HdmoPTA)(PPh3)2](CF3SO3)2]	0.86 ± 0.13					0.48 ± 0.07	1.23 ± 0.32	2-3 fold	1.5	approximately 60%	Static	do not induce any spectral shift	does not affect
CN1CN2CN(C)C[P]([Ru+2]([P](c3ccccc3)(c3ccccc3)c3ccccc3)[P](c3ccccc3)(c3ccccc3)c3ccccc3)(C1)C2.O=S(=O)([O-])C(F)(F)F.c1cc[cH-]c1 [Compound 10, [RuCp(dmoPTA)(PPh3)2](CF3SO3)]	0.84 ± 0.09					0.4 ± 0.04	1.47 ± 0.4	2-3 fold	1.5	~75%	Static	do not induce any spectral shift	does not affect
